According to the NIST ThermoML archive (doi:10.1016/j.jct.2016.05.017):
Values joined by “and” are separate entries in the source; they are usually repeats but may differ in a detail not shown here. Equal values may be shown once.

Assays:
[1] = for vapor or sublimation pressure: Transpiration method; for Triple point temperature: DSC
[2] = Molar enthalpy of transition or fusion; settings: Crystal; DSC

CC(=O)C12CC3CC(CC(C3)C1)C2 [1-adamantyl methyl ketone]
[1]
Settings | vapor or sublimation pressure
291.6 K, Crystal | 0.00076 kPa
293.7 K, Crystal | 0.00099 kPa
296.5 K, Crystal | 0.00136 kPa
298.4 K, Crystal | 0.00174 kPa
303.3 K, Crystal | 0.00299 kPa
308.2 K, Crystal | 0.00505 kPa
308.4 K, Crystal | 0.00506 kPa
313.2 K, Crystal | 0.0085 kPa
316.2 K, Crystal | 0.01174 kPa
318.2 K, Crystal | 0.01406 kPa
318.7 K, Crystal | 0.01511 kPa
320.3 K, Crystal | 0.01713 kPa
323.3 K, Crystal | 0.02368 kPa
331.3 K, Liquid | 0.0399 kPa and 0.0404 kPa
333.2 K, Liquid | 0.04637 kPa and 0.0468 kPa
335.2 K, Liquid | 0.0516 kPa
338.2 K, Liquid | 0.0633 kPa
341.2 K, Liquid | 0.0767 kPa
343.1 K, Liquid | 0.08701 kPa
346.2 K, Liquid | 0.1025 kPa
348.1 K, Liquid | 0.1221 kPa
348.3 K, Liquid | 0.1231 kPa
351.7 K, Liquid | 0.1433 kPa
352.1 K, Liquid | 0.1514 kPa
353.1 K, Liquid | 0.1567 kPa
355.5 K, Liquid | 0.1853 kPa
356 K, Liquid | 0.1912 kPa
358.1 K, Liquid | 0.2111 kPa
358.2 K, Liquid | 0.2186 kPa
360.4 K, Liquid | 0.2451 kPa
363.1 K, Liquid | 0.2835 kPa

Settings | Triple point temperature [K]
[1], Crystal | 325.2

Settings | Molar enthalpy of transition or fusion [kcal/mol]
[2] | 4.66

O=C1C2CC3CC(C2)CC1C3 [2-adamantanone]
[1], Crystal
Settings | vapor or sublimation pressure [kPa]
293.5 K | 0.00109
296.4 K | 0.00142
297.4 K | 0.00156
298.5 K | 0.00172
300.4 K | 0.00199
303.4 K | 0.00258
306.4 K | 0.00341
308.4 K | 0.00417
313.4 K | 0.00608
318.4 K | 0.00903
323.4 K | 0.01275
328.4 K | 0.01873
333.4 K | 0.02597
338.5 K | 0.03782
343.3 K | 0.05432
348.4 K | 0.07513
353.3 K | 0.09857
358.3 K | 0.1302
363.4 K | 0.1815
368.4 K | 0.2462
373.4 K | 0.3099

O=C(O)C12CC3CC(CC(C3)C1)C2 [tricyclo[3.3.1.1(3,7)]decane-1-carboxylic acid]
[1], Crystal
Settings | vapor or sublimation pressure [kPa]
345.2 K | 0.0009
348.2 K | 0.00122
353.2 K | 0.00193
356.7 K | 0.00266
360.2 K | 0.00382
362.2 K | 0.00453
365.2 K | 0.00575
367.7 K | 0.00692
370.2 K | 0.00896
370.3 K | 0.00895
373.2 K | 0.01102
375.2 K | 0.01263
377.3 K | 0.01524
377.7 K | 0.01587
380.2 K | 0.01902
382.2 K | 0.02303
385.3 K | 0.02961

Settings | Triple point temperature [K]
[1], Crystal | 449.1

Settings | Molar enthalpy of transition or fusion [kcal/mol]
[2] | 4.21

O=C(O)C1C2CC3CC(C2)CC1C3 (stereo not given) [adamantane-2-carboxylic acid]
[1], Crystal
Settings | vapor or sublimation pressure
344.3 K | 0.00066 kPa
347.3 K | 0.00087 kPa
350.3 K | 0.00113 kPa
353.4 K | 0.00157 kPa
355.4 K | 0.0018 kPa
356.4 K | 0.00212 kPa
358.4 K | 0.00246 kPa
360.4 K | 0.00307 kPa
362.4 K | 0.00345 kPa
364.4 K | 0.00436 kPa
365.8 K | 0.0048 kPa
368.3 K | 0.00577 kPa
368.4 K | 0.00595 kPa
369.4 K | 0.00628 kPa
370.4 K | 0.00725 kPa
371.4 K | 0.00757 kPa
373.4 K | 0.00923 kPa
374.4 K | 0.00992 kPa
376.4 K | 0.01193 kPa
377.4 K | 0.01257 kPa and 0.01301 kPa
378.4 K | 0.01382 kPa
380.3 K | 0.01584 kPa
381.3 K | 0.01701 kPa
383.4 K | 0.02003 kPa
386.4 K | 0.02497 kPa

Settings | Triple point temperature [K]
[1], Crystal | 416.3

Settings | Molar enthalpy of transition or fusion [kcal/mol]
[2] | 2.34
